Assays:
[1] = tested on: ROSA WT; experiment: Western blot of proteins associated with cell proliferation or apoptosis; format: cell-based, human; details: increasing doses
Method: (§1) The human MCL-derived cell line HMC-1 was kindly provided by Dr. Michel Arock, Paris, France. Two sub-clones were used, namely HMC-1.1 expressing KIT V560G, and HMC-1.2 expressing KIT V560G and KIT D816V.
(§2) Human primary mast cells, patient's leukemic mast cells and ROSA KIT-WT cell line were cultured in Iscove's modified Dulbecco's Medium (IMDM)-Glutamax® (Invitrogen) supplemented with the penicillin/streptomycin 100 U/ml (P/S) (Invitrogen), 1% of sodium pyruvate (Invitrogen), 1% of vitamins (Invitrogen), 1% of glutamine (Invitrogen), 2% of non-essential amino acids (Invitrogen), 1% of a commercial solution of insulin-transferrin-sodium selenite (Invitrogen), 0.3% of albumin bovine (BSA) in presence of human SCF at 100 ng/ml (Milteny biotech). “ROSA KIT D816V”, “ROSA KIT Delta 417-419 insY” mast cells and HMC-1 lines which have mutated KIT receptor (CD117) grow in the same media described above but in absence of hSCF.
(§3) After an overnight starvation of 5 million cells from each kind of cells described above, cells were treated with different doses of chemical agonists (such as purmorfamine) or antagonists (such as Gant61) of HH pathway and for several time-laps. Cells were then collected to extract RNA or proteins to perform gene expression analysis by RT-qPCR or western blot analysis. […]

[2] = tested on: ROSA D816V; experiment: as above; format: cell-based, human; details: increasing doses
Method: as §1, §2, §3

[3] = tested on: ROSA KIT K417; experiment: Kinetic cell proliferation assay, IncuCyte Live Cell analysis system; format: cell-based, human; details: ROSA KIT K417, increasing doses (10 to 50 μM), 144 hours
[4] = tested on: ROSA KIT WT; experiment: as above; format: cell-based, human; details: increasing doses (10 to 50 μM), 144 hours
Method: as §1, §2
(§4) Kinetic cell proliferation assays were performed using the IncuCyte® Live Cell analysis system with 10 000 cells/well in triplicate and during one week in presence or absence of chemicals compounds, Gant61, Vismodegib and, individually or in combination, to determine their effect on mast cell proliferation. Compounds were added the first day at different doses and the media was not changed over the 7 days. At the end of the week, mast cells death was investigated by flow cytometry using 7-AAD viability staining solution.

[5] = tested on: ROSA KIT D816V; experiment: as above; format: cell-based, human; details: increasing doses (10 to 50 μM), 144 hours
Method: as §1, §2, §4

[6] = tested on: mast cells; experiment: Mast cell death by flow cytometry, 7-AAD viability staining; format: cell-based, human
Method: as §1, §2, §4

[7] = tested on: leukemic MC; experiment: Leukemic mast cell death; format: cell-based, human; details: data not shown
Method: as §1, §2
Kinetic cell proliferation assays were performed using the IncuCyte® Live Cell analysis system with 10 000 cells/well in triplicate and during one week in presence or absence of chemicals compounds, Gant61, Vismodegib and, individually or in combination, to determine their effect on mast cell proliferation. Compounds were added the first day at different doses and the media was not changed over the 7 days. […]

[8] = tested on: conventional PKC isoforms (α, β, and γ), Syk, FLK1, Akt, PKA, c-Kit, C-Fgr, c-Src, FLT3, PDFRβ, VEGFR1, and VEGFR2; details: several serine/threonine and tyrosine kinases; cited from earlier work
[9] = tested on: GLI1 protein; experiment: Western blot of GLI1 after stimulation with SMO agonist; format: cell-based; details: human MC lines (ROSA KIT WT, KIT D816V), purmorphamine 2 or 5 μM, 12 or 24 hours
Method: After an overnight starvation of 5 million cells from each kind of cells described above, cells were treated with different doses of chemical agonists (such as purmorfamine) or antagonists (such as Gant61) of HH pathway and for several time-laps. Cells were then collected to extract RNA or proteins to perform gene expression analysis by RT-qPCR or western blot analysis. Hedgehog genes Gli1-2-3, Smo, Patch receptors, SHH-IHH-DHH ligands and the tumor supressor Bcl2 gene were investigated. Hedgehog proteins (Gli1 and Gli3), proteins involved in apoptosis (Bcl2, caspase3, Bcl-xl) and in PI3K/AKT/mTOR pathway were investigated.

CN(C)c1ccccc1CN1CCCN(Cc2ccccc2N(C)C)C1c1ccncc1 [GANT61]
Expression levels of mTOR, p-AKT, AKT, MYC, Caspase3, BCL2, and BCLX-L proteins [1]: decreased | Expression levels of mTOR, p-AKT, AKT, MYC, Caspase3, BCL2, and BCLX-L proteins [2]: decreased | proliferation (percentage of confluence) [3]: inhibited | proliferation (percentage of confluence) [4]: inhibited | proliferation (percentage of confluence) [5]: inhibited | mast cells death ([6]; GANT61 5 μM): 5% | mast cells death ([6]; GANT61 50 μM, data not shown): more than 90% | leukemic MC death [7]: induced leukemic MC death

CO[C@@H]1[C@H](N(C)C(=O)c2ccccc2)C[C@H]2O[C@]1(C)n1c3ccccc3c3c4c(c5c6ccccc6n2c5c31)C(=O)NC4 [PKC 412, N-[(9S,10R,11R,13R)-2,3,10,11,12,13-hexahydro-10-methoxy-9-methyl-1-oxo-9,13-epoxy-1H,9H-diindolo[1,2,3-gh:3′,2′,1′-lm]pyrrolo[3,4-j][1,7]benzodiazonin-11-yl]-N-methyl-benzamide]
IC50 [8]: 80 to 500 nM

c1ccc2c(Oc3nc(Nc4ccc(N5CCOCC5)cc4)c4ncn(C5CCCCC5)c4n3)cccc2c1 [purmorphamine]
GLI1 expression [9]: clearly increased

CS(=O)(=O)c1ccc(C(=O)Nc2ccc(Cl)c(-c3ccccn3)c2)c(Cl)c1 [vismodegib]
proliferation (percentage of confluence) [3]: prevented the proliferation | proliferation (percentage of confluence) [4]: prevented the proliferation | proliferation (percentage of confluence) [5]: prevented the proliferation | induction of cell death compared with GANT61 ([6]; whatever the cell type, data not shown): much less important

Source: US11389434B2, “Methods and pharmaceutical compositions for the treatment of mast cell diseases” (INSERM (INSTITUT NATIONAL DE LA SANTE ET DE LA RECHERCHE …, priority 2017, dated 2022)
